Data as given in a melting point compilation (Tetko et al.; mined from patent text by program, amines drawn as free bases though some values may be those of a salt).

melting point [°C] | Structure (SMILES)
124 | COc1ccc(Oc2cccc(C(F)(F)F)c2)c(C(=O)O)c1
115 | OCC12CO[C@@H](c3ccc(F)cc3)N1[C@H](c1ccc(F)cc1)OC2
107 to 108 | COc1nc(Cl)nc(Nc2ccc(OC(=O)C(C)(C)Br)cc2)n1
151 | CCOC(=O)Cc1cnc2c(NC(=O)c3c(Cl)cccc3Cl)cccc2c1
152 | NC(=Nc1ccc(CNC(=O)CCCCC2CCSS2)cc1)c1cccs1 (centres undefined)
124 to 126 | CCN(C(=O)OC(C)(C)C)C1CC=C(c2c[nH]c3ccc(NC(=N)c4cccs4)cc23)CC1 (centres undefined)
152 to 154 | CC(C(=O)O)c1ccc2c(c1)C(=O)Cc1ccccc1O2 (centres undefined)
96 to 100 | O=C(O)COCC(Cc1ccccc1)NC(=O)OCc1ccccc1 (centres undefined)
172 | O=C(NC(Cc1ccccc1)C(=O)O)c1ccc2cc(NCc3ccccc3)ccc2c1 (centres undefined)
145 | CC(C)(C)OC(=O)Nc1cc(OCc2ccccc2)c2ccc(C#N)cc2c1
135 | Cc1cccc(-c2nc3ccccn3c2-c2ccnc(-c3ccc(NS(=O)(=O)C(F)(F)F)cc3)c2)n1
148 to 150 | COc1ccc(S(=O)(=O)Nc2cccnc2Nc2ccccc2F)cc1
168 to 169 | O=C1N(c2ccccc2)c2ccccc2C1(Cc1ccncc1)Cc1ccc([N+](=O)[O-])cc1 (centres undefined)
106 to 107 | COc1ccc(NC(=O)CCCCCC(C)=O)cc1
122 to 125 | CNCCc1cccc(N2C(=O)N(c3c(Cl)cccc3Cl)Cc3cnc(Nc4ccccc4)nc32)c1
130 to 133 | COc1cc2cc(C(=O)N3CC(CCl)c4c3cc(N)c3ccccc43)[nH]c2cc1OCCN(C)C (centres undefined)
110 to 111 | COc1cccc(Nc2cnc3c(NCc4ccccc4)nc(NCCO)nc3c2)c1
233 to 235 | COc1nc(C)cnc1NS(=O)(=O)c1cccnc1-c1ccc(C=CC(=O)O)cc1
134 | OC(Cc1ccccc1)(Cn1cncn1)c1ccccc1 (centres undefined)
135 to 140 | O=C1CC(NC(=O)C2CCCN3C(=O)CCC(NC(=O)c4ccc5c(c4)OCO5)C(=O)N23)C(OCc2ccccc2)O1 (centres undefined)
129 to 132 | COc1cccc([C@H]2O[C@H](CC(=O)NCc3ccc(CC(=O)O)cc3)C(=O)N(CC(C)(C)CO)c3ccc(Cl)cc32)c1OC
122 to 123 | CCOC(=O)N1CCOC(c2ccccc2)(c2ccccc2)CC1
187 to 190 | N[C@@H](CSCC1CCN(C(=O)OCc2ccccc2)CC1)C(=O)O
170 to 172 | O=C(O)CCCn1ccc(=O)c(O)c1Cc1ccccc1
> 300 | Cn1c(=O)c2cnc(N)nc2n(-c2ccccc2)c1=O
215 to 217 | OCCCNC1=Nc2ccccc2C1(O)c1ccccc1 (centres undefined)
68 | CCOC(=O)Cc1ccc(-c2ccc(OC)cc2)cc1

melting point [°C] | Structure (SMILES)
118 to 119 | CCCCCC(O)C=Cn1c(=O)n(CCN2CCN(c3ccccc3OC)CC2)c(=O)c2ccccc21 (centres undefined)
131 to 133 | COc1ccc(S(=O)(=O)N2c3ccccc3-c3ccccc3C2C)cc1OC (centres undefined)
82 to 84 | O=C1Cc2cccc(Oc3ccccc3F)c2O1
138 to 145 | CC[C@@H](Nc1nc(NCc2cccnc2)c2ncn(C(C)C)c2n1)C(C)(C)O
239 | COc1ccc(-n2c(-c3ccc(Br)cc3)nc3c4ccccc4c4ccccc4c32)cc1
108 to 110 | O=C(c1ccccc1)N1CCc2cc(CCl)ccc21
122 to 125 | CS(=O)(=O)c1ccc(Oc2ccc(CC(=O)O)cc2)cc1
57 to 60 | OCCN1CCN(C2=Nc3ccccc3Sc3ccccc32)CC1
100 to 102 | O=Cc1cccc2ccc(-c3ccccc3)nc12
134 to 136 | Cc1cc(C)c(-c2cc(O)c(SCc3ccccc3)c(=O)o2)c(C)c1
135 to 138 | COC(=O)COc1cc2c(c3c1cc(C)n3Cc1ccccc1)CCC2
165 to 180 | COCCN1CCc2ccc(Nc3ncc(Cl)c(Nc4ccccc4C(=O)NC4CC4)n3)cc2CC1
201 to 204 | CN1C(=O)CCC(=O)N1c1cc(-c2ccnc(Nc3cccc(Cl)c3)n2)ccn1
163 to 164 | COC(=O)c1ccc(Cc2csc3ccc(NC(=O)OC4CCCC4)cc23)c(OC)c1
75 to 77 | CCCCNc1cc(CN(Cc2ccccc2)C(C)=O)cc(S(N)(=O)=O)c1Oc1ccccc1
107 to 110 | O=S(=O)(CCc1ccc(-c2ccccc2)cc1)N1CC(CN2CCCC2)Cc2ccccc21 (centres undefined)
137 to 152 | O=C(c1cccc(-c2ccccc2)c1C(=O)C(Cl)(Cl)Cl)C(Cl)(Cl)Cl
233 to 235 | CCOCc1nc2c(N)nc3ccccc3c2n1CCCC(N)=O
110 to 112 | CNCC1Cc2cc(OC)cc(-c3ccccc3F)c2O1 (centres undefined)
142 to 144 | COc1ccc(Nc2cccc3c2C(=O)N(C2CCC(=O)NC2=O)C3=O)c(Oc2ccccc2)c1 (centres undefined)
294 | CCNC(=O)Nc1nc2cc(OCc3ccccc3)cc(Br)c2s1
152 | CCCCCC(CC(=O)Nc1cc(C(N)=O)ccc1C(C)(C)C)c1ccc(OC)cc1OC (single isomer, unassigned; (+))
101 to 103 | CC(CCc1ccc(F)cc1)NCc1c(CO)ccc(O)c1CO (centres undefined)
86 | CCCCCCCNC(=O)N(C)c1cccc(-c2cc(F)c(CCC(=O)O)c(F)c2)c1
187 to 189 | O=C(O)C1CCN(C(=O)OCC2c3ccccc3-c3ccccc32)CC1
144 to 146 | Cc1ccc(S(=O)(=O)OCCOc2ccc(N)c(CS(=O)(=O)c3ccccc3)c2)cc1

The next lines start with the compound.

Structure (SMILES) | melting point [°C]
O=C1COCCOCC(=O)NCCOCCOCCN1 | 111
COc1cc(C)c2ccccc2n1 | 181 to 191
COc1ccc(C2OCC(COC(C(F)(F)F)(C(F)(F)F)C(F)(F)F)(COC(C(F)(F)F)(C(F)(F)F)C(F)(F)F)CO2)cc1 | 89 to 90
N#Cc1ccc(O)c(NC(=O)C(=O)O)c1 | > 300
CCCC(=O)N[C@@H]1CCc2cccc(N3CCN(C)CC3)c2C1 | 131 to 132
C(#Cc1ccsc1)c1cccnc1 | 62
CC(CN1CCCC1)N1c2ccccc2Sc2ccc(C3=NC4CCCCC4N3)cc21 (racemic) | 109
CCCCN(C(=O)NC)c1ccc(Cl)c(Cl)c1 | 58
CC(=O)NC[C@H]1CN(c2cc(F)c(N3CCC(n4nnnc4-c4ccncc4)CC3)c(F)c2)C(=O)O1 | 202 to 204
O=C(O)Cn1cc(Cc2nc3c(F)c(F)cc(F)c3s2)c2cccc(Br)c21 | 228 to 230
C=CCOc1ccc(C=CC(=O)N2CCN(c3nc(N)c4cc(OC)c(OC)cc4n3)CC2)cc1 | 218 to 220
N#CC1=C(C2CCNCC2)Nc2n[nH]cc2C1c1cccc2nonc12 (centres undefined) | 216
CC(C)(C)c1ccc(Cl)c(C(=O)O)c1 | 99 to 103
CCc1cnc2c(C#N)cnn2c1-c1cccc(C(F)(F)F)c1 | 135 to 137
COc1ccc(-c2cnnc(-c3ccc(C(F)(F)F)cc3F)c2N)cc1 | 215 to 216
CC(=O)c1cc(NC(=O)CCCC(=O)Nc2cc(C(C)=O)cc(C(C)=O)c2)cc(C(C)=O)c1 | 200 to 203
CCOC(=O)c1cnn(-c2ccc(OC)cc2)c1Cl | 100 to 101
Brc1ccc2c(c1)C1(OCCCO1)C1=NCCCN12 | 145 to 149
N#Cc1cnn2c1N(C(=O)CI)CC=C2c1cccc(C(F)(F)F)c1 | 158 to 160
Cn1cnc2c1C(=O)N1CCN=C1N2Cc1ccc(Cl)cc1 | 182 to 184
CC(=O)OCC(=O)C1C(C)CC2C3CC(Cl)C4=CC(=O)C=CC4(C)C34OC4CC21C (centres undefined) | 189
NC(=O)N1C(=O)C(C(=O)c2cc(Cl)cs2)c2ncc(Cl)cc21 (centres undefined) | > 250
CC(C)(C)c1ccc(C(=O)NC(=N)N)cc1 | 255 to 258

Structure (SMILES) | melting point [°C]
O=C(O)CCCCCCCCNS(=O)(=O)c1ccc(Br)cc1 | 124 to 125
COC(=O)c1c(C)nc2c(c1N)c1cc(Cl)ccc1n2C | 203 to 211
COC(=O)c1c(Br)c(F)cc2[nH]ncc12 | 169 to 171
COc1cc2c(c(Cl)c1Cl)C(=O)C(C)(c1ccc(Cl)cc1)C2 (centres undefined) | 176 to 178
N#Cc1cc(C#N)cc(Oc2nccc(Oc3cc(Cl)cc(Cl)c3)n2)c1 | 156
CN(C)c1ccc(NC(=O)N(C[C@@H]2CCCC[C@H]2CN(C(=O)Nc2ccc(N(C)C)cc2)C2CCCCCC2)C2CCCCCC2)cc1 (relative stereo) | 107 to 112
CC(=O)N(C)c1c(N(C)C)cc(C(=O)CS(C)(=O)=O)cc1N(C)C | 120
CCCOc1ccccc1C1=NC(=O)C2=NC(C(F)(F)F)=NC2=N1 | 255 to 260
C=CCN1CCCC1CNC(=O)c1cc(S(=O)(=O)CC)cc2c1OCCO2 (centres undefined) | 78 to 80
CC1Cn2c(nc3c(c2=O)CCCC3)-c2[nH]c3ccccc3c21 (centres undefined) | 220 to 221
CS(=O)(=O)Nc1ccc(C(=O)O)c(Cl)c1 | 256 to 258
O=c1cc(-c2ccc(O)c(Cl)c2)oc2ncccc12 | 259 to 262
CCC1CCC2(C)C(=CCC3C4CC(O)C(=O)C4(C)CCC32)C1 (centres undefined) | 166 to 168
CCOc1ccc(-c2cc(C(F)(F)F)n3ncc(-c4ccncc4)c3n2)cc1C(F)(F)F | 233
COC(=O)c1ccc(O)c(C23CC4CC(CC(C4)C2)C3)c1 | 183 to 184
CC1(C)NC(=O)C2CNCCN21 (centres undefined) | 174
Cn1nc(-c2ccnc(N[C@H]3CC[C@H](O)CC3)n2)c2ccccc21 | 180 to 183
CCN(CC)CCNC(=O)c1cc(Cl)c(N)cc1OCCCCS(C)=O (centres undefined) | 80 to 83
S=c1c2ccc(Cl)cc2nc2n1CCCCC2 | 99 to 101
c1cn2ccnc2c(N2CCOCC2)n1 | 127
CCCCCCCCCCCCCCCCCC(=O)Nc1cccc(N(CC(=O)O)CC(=O)O)c1 | 135 to 140
CNc1cc(Cl)c(C=O)c(Cl)c1 | 172 to 174
C#CCOc1cc(N2C(=O)C3CCCCN3C2C(=O)OCC)c(F)cc1Cl (centres undefined) | 72 to 75
